Results taken from patent US20250197372A1 (priority 2020, published 2025).

Each compound was assayed against T1, recombinant alpha-glucosidase I (human full-length glucosidase I, Glu 1) (Homo sapiens, UniProt Q13724) (assay: Alpha-glucosidase I assay (Amplex Red glucose detection, synthetic trisaccharide substrate)). Conditions: not given.
T1 construct: 6-His (C); made in house; host or cells: HEK-293T cells transduced with BacMam virus (virus raised in Sf9)
T1 sequence (Q13724 1-837): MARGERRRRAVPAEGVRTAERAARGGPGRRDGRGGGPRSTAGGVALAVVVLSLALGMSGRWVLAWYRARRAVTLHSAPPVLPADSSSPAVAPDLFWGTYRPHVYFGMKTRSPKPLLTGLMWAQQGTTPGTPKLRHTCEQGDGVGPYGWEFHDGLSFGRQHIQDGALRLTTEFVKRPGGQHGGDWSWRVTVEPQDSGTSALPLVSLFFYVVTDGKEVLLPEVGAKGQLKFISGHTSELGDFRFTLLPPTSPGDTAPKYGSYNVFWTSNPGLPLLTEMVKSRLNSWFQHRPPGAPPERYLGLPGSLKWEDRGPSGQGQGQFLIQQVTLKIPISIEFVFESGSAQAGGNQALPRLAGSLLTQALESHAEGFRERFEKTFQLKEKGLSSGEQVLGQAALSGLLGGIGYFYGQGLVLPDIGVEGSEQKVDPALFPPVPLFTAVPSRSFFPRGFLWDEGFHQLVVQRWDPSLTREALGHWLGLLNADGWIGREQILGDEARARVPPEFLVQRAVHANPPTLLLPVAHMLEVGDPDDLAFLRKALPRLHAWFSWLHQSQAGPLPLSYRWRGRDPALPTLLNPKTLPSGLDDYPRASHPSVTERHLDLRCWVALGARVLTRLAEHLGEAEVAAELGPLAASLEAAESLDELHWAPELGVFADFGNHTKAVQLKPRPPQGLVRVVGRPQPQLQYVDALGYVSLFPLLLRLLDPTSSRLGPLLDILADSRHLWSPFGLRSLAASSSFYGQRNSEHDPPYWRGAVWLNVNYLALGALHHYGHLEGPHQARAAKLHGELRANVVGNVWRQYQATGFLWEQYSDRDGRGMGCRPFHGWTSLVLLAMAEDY
Type: biochemical
From the text: Preparation of Human Full-length Glucosidase I: The amino acid sequence for human full-length glucosidase I was obtained from UniProt (Q13724). […] The entry vector was cloned into Kemp Proteins' BacMam Destination vector and transformed into chemically competent DH10Bac E. coli cells to produce recombinant glucosidase I bacmids. Bacmid isolates were obtained following two rounds of blue-white screening and they were transfected into Sf9 cells cultivated in serum-free medium (Thermo Fisher Scientific). Four days post-transfection the culture supernatants containing virus were harvested and filter sterilized. […] A multiplicity of infection (MOI, ratio of virus to cells) of 4 was selected. Soluble glucosidase I was detected by anti-His western blots in the soluble cell extract following extraction with 1% V/V NP40 for 30 minutes at 0° C. Productions and purifications of glucosidase I were carried out at scales ranging from 1-liter to 10-liters. […] In another example production at the 10-liter scale was performed in stirred-tank bioreactors at 27° C. and 80 rpm with dissolved oxygen level at 50% of oxygen in air and pH between 7.0 and 7.2. Cells were transduced at MOI of 4 and the cell pellet was harvested at 48 hours post-transduction using centrifugation.
The pellet from a 10-liter culture was lysed by resuspending the pellet into 1-liter of 50 mM NaH2PO4—H2O+300 mM NaCl+10 mM Imidazole+1 mM PMSF+1% V/V NP40 pH 8. The suspension was incubated on ice for 30 minutes and clarified at 500×g and 4° C. The supernatant was collected and clarified at 20,000×g for 30 minutes at 4° C. and the supernatant was collected and filtered through a 0.2 micron filter. […] The column was washed with 20 column volumes (CV) of 50 mM NaH2PO4-H2O+300 mM NaCl+10 mM Imidazole pH 8 and eluted using a linear gradient of 0-60% 50 mM NaH2PO4-H2O+300 mM NaCl+500 mM Imidazole pH 8 over 90 minutes. at 5 mL per minute. Fractions (25 mL) were collected and analyzed by SDS PAGE and Western Blot (reducing anti-His). Fractions containing purified glucosidase I were pooled and dialyzed into storage buffer (20 mM Tris+300 mM NaCl+50 mM L-arginine+10 mM EDTA+0.01% V/V Tween 80 pH 7.5). The final material was filter sterilized and stored at 4° C. and the working dilution confirmed by a use-test in the indicated assay conditions prior to use.
Alpha-glucosidase I Assay: The assay was performed by incubating recombinant alpha-glucosidase I enzyme with multiple dilutions of test compounds for 60 minutes at 37° C. A synthetic trisaccharide substrate analog was then introduced to the mixture for 90 minutes at 37° C. The reaction was then stopped with 1.5M Tris (pH 8). In the absence of inhibition, the terminal glucose of the substrate was hydrolyzed by the enzyme. The D-glucose product was detected using Amplex Red Glucose/Glucose Oxidase Assay Kit (Invitrogen) following the manufacturer's directions where glucose oxidase reacts with D-glucose to form D-gluconolactone and H2O2 which then reacts with the Amplex Red reagent to generate a red-fluorescent oxidation product (560 nm, excitation; 590 nm, emission). […] Percent inhibition is plotted as a function of concentration for each compound, compared to control reactions. The IC50 was determined using a 4-PL curve fit and serves as a measure of relative inhibitory activity of each test compound (see Table 3).
For Cc1cc(NCc2cccc(CN3C[C@H](O)[C@@H](O)[C@H](O)[C@H]3CO)c2)cc(-c2ncccn2)c1 [Compound 1035, (2R,3R,4R,5S)-2-(hydroxymethyl)-1-{[3-({[3-methyl-5-(pyrimidin-2-yl)phenyl]amino}methyl)phenyl]methyl}piperidine-3,4,5-triol], the IC50 was 44 nM.
For Cc1cc(NCc2ccc(CN3C[C@H](O)[C@@H](O)[C@H](O)[C@H]3CO)cc2)cc(-c2cccnn2)c1 [Compound 1052, (2R,3R,4R,5S)-2-(hydroxymethyl)-1-{[4-({[3-methyl-5-(pyridazin-3-yl)phenyl]amino}methyl)phenyl]methyl}piperidine-3,4,5-trio], the IC50 was 73 nM.
Compound [N-]=[N+]=Nc1ccc(NCCc2cncc(CCN3C[C@H](O)[C@@H](O)[C@H](O)[C@H]3CO)n2)c([N+](=O)[O-])c1 [Compound 1187, (2R,3R,4R,5S)-1-[2-(6-{2-[(4-azido-2-nitrophenyl)amino]ethyl}pyrazin-2-yl)ethyl]-2-(hydroxymethyl)piperidine-3,4,5-triol] has an IC50 of 94 nM.
For CS(=O)(=O)c1cc(NCc2ccc(CN3C[C@H](O)[C@@H](O)[C@H](O)[C@H]3CO)cc2)cc(-c2cccnn2)c1 [Compound 1058, (2R,3R,4R,5S)-2-(hydroxymethyl)-1-{[4-({[3-methanesulfonyl-5-(pyridazin-3-yl)phenyl]amino}methyl)phenyl]methyl}piperidine-3,4,5-triol], the IC50 was 21 nM.
[N-]=[N+]=Nc1ccc(NCC/C=C/CCN2C[C@H](O)[C@@H](O)[C@H](O)[C@H]2CO)c([N+](=O)[O-])c1 [Compound 1260, (2R,3R,4R,5S)-1-[(3E)-6-[(4-azido-2-nitrophenyl)amino]hex-3-en-1-yl]-2-(hydroxymethyl)piperidine-3,4,5-triol] gave an IC50 of 136 nM.
For O=[N+]([O-])c1cc(-c2ccccc2)ccc1NCCCCCCN1C[C@H](O)[C@@H](O)[C@H](O)[C@H]1CO [Compound 1138, (2R,3R,4R,5S)-2-(hydroxymethyl)-1-[6-({3-nitro-[1,1′-biphenyl]-4-yl}amino)hexyl]piperidine-3,4,5-triol], the IC50 was 115 nM.
Compound OC[C@@H]1[C@@H](O)[C@H](O)[C@@H](O)CN1Cc1ccc(CNc2ccc(N3CCOCC3)cc2)cc1 [Compound 1068] has an IC50 of 122 nM.

Same assay, conditions: Glucosidase 1; read-out: Glu 1 IC50
Compound [N-]=[N+]=Nc1ccc(NCCn2cc(CCN3C[C@H](O)[C@@H](O)[C@H](O)[C@H]3CO)c3ccccc32)c([N+](=O)[O-])c1 [Compound 1177, (2R,3R,4R,5S)-1-[2-(1-{2-[(4-azido-2-nitrophenyl)amino]ethyl}-1H-indol-3-yl)ethyl]-2-(hydroxymethyl)piperidine-3,4,5-triol] has an IC50 of 374 nM.
OC[C@@H]1[C@@H](O)[C@H](O)[C@@H](O)CN1CCc1ccc(CCNc2cc(Cl)cc(-c3ncccn3)c2)cc1 [Compound 1162, (2R,3R,4R,5S)-1-{2-[4-(2-{[3-chloro-5-(pyrimidin-2-yl)phenyl]amino}ethyl)phenyl]ethyl}-2-(hydroxymethyl)piperidine-3,4,5-triol] gave an IC50 of 508 nM.
Compound OC[C@@H]1[C@@H](O)[C@H](O)[C@@H](O)CN1CCCCCCNc1ccc(-c2ncco2)cc1Cl [Compound 1203, (2R,3R,4R,5S)-1-(6-{[2-chloro-4-(1,3-oxazol-2-yl)phenyl]amino}hexyl)-2-(hydroxymethyl)piperidine-3,4,5-triol] has an IC50 of 3 nM.
Work on COc1cc(NCCc2ccc(CCN3C[C@H](O)[C@@H](O)[C@H](O)[C@H]3CO)cc2)cc(-c2cccnn2)c1 [Compound 1157, (2R,3R,4R,5S)-2-(hydroxymethyl)-1-{2-[4-(2-{[3-methoxy-5-(pyridazin-3-yl)phenyl]amino}ethyl)phenyl]ethyl}piperidine-3,4,5-triol] yielded an IC50 of 336 nM.
COc1cc(CC2CCOC2)cc(NCCCCCCN2C[C@H](O)[C@@H](O)[C@H](O)[C@H]2CO)c1 (stereo partly drawn) [Compound 1141, (2R,3R,4R,5S)-2-(hydroxymethyl)-1-[6-({3-methoxy-5-[(oxolan-3-yl)methyl]phenyl}amino)hexyl]piperidine-3,4,5-triol] was tested, and the IC50 was 1160 nM.
For OC[C@@H]1[C@@H](O)[C@H](O)[C@@H](O)CN1CCc1ccc(CCNc2cc(Cl)cc(C3=CCOCC3)c2)cc1 [Compound 1160, (2R,3R,4R,5S)-1-{2-[4-(2-{[3-chloro-5-(3,6-dihydro-2H-pyran-4-yl)phenyl]amino}ethyl)phenyl]ethyl}-2-(hydroxymethyl)piperidine-3,4,5-triol], the IC50 was 1570 nM.
For COc1cc(CN2CCCO2)cc(NCCCCCCN2C[C@H](O)[C@@H](O)[C@H](O)[C@H]2CO)c1 [Compound 1182, (2R,3R,4R,5S)-2-(hydroxymethyl)-1-[6-({3-methoxy-5-[(1,2-oxazolidin-2-yl)methyl]phenyl}amino)hexyl]piperidine-3,4,5-triol], the IC50 was 47 nM.
Compound O=Cc1cc(NCCCCCCN2C[C@H](O)[C@@H](O)[C@H](O)[C@H]2CO)cc(-c2ncccn2)c1 [Compound 1129, 3-(pyrimidin-2-yl)-5-({6-[(2R,3R,4R,5S)-3,4,5-trihydroxy-2-(hydroxymethyl)piperidin-1-yl]hexyl}amino)benzaldehyde] has an IC50 of 148 nM.
With [N-]=[N+]=Nc1ccc(NCCc2cnn(CCN3C[C@H](O)[C@@H](O)[C@H](O)[C@H]3CO)c2)c([N+](=O)[O-])c1 [Compound 1191, (2R,3R,4R,5S)-1-[2-(4-{2-[(4-azido-2-nitrophenyl)amino]ethyl}-1H-pyrazol-1-yl)ethyl]-2-(hydroxymethyl)piperidine-3,4,5-triol] the IC50 was 7550 nM.
In the case of CN(C)C(=O)c1cc(NCCCCCCN2C[C@H](O)[C@@H](O)[C@H](O)[C@H]2CO)cc(-c2ncccn2)c1 [Compound 1126, N,N-dimethyl-3-(pyrimidin-2-yl)-5-({6-[(2R,3R,4R,5S)-3,4,5-trihydroxy-2-(hydroxymethyl)piperidin-1-yl]hexyl}amino)benzamide], the IC50 is reported as 550 nM.
With [N-]=[N+]=Nc1ccc(NCCc2ccc(CCN3C[C@H](O)[C@@H](O)[C@H](O)[C@H]3CO)cc2)c([N+](=O)[O-])c1 [Compound 1200, (2R,3R,4R,5S)-1-[2-(4-{2-[(4-azido-2-nitrophenyl)amino]ethyl}phenyl)ethyl]-2-(hydroxymethyl)piperidine-3,4,5-triol] the IC50 was 31 nM.
[N-]=[N+]=Nc1ccc(NCCc2ccc(CCN3C[C@H](O)[C@@H](O)[C@H](O)[C@H]3CO)s2)c([N+](=O)[O-])c1 [Compound 1186, (2R,3R,4R,5S)-1-[2-(5-{2-[(4-azido-2-nitrophenyl)amino]ethyl}hiophen-2-yl)ethyl]-2-(hydroxymethyl)piperidine-3,4,5-triol] gave an IC50 of 3 nM.
